According to patent US12077503B2, “Substituted cyclic amides and their use as herbicides” (FMC CORPORATION, priority 2015, dated 2024):

Columns and labels:
Assay in all cases: Test E preemergence
Assay type in all cases: in vivo
Conditions in all cases: scale 0 to 100
[1] = test system: crabgrass, large (large crabgrass, Digitaria sangumnalis)
Method in brief: (§1)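 Visual ratings from 0 (no effect) to 100 (complete control) were made versus controls 14 to 21 d after treatment. Seeds in silt loam were treated preemergence, or plants 2 to 18 cm tall in peat-based medium postemergence, with the test chemical in a surfactant-containing, non-phytotoxic solvent mixture, then held in a greenhouse.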

[2] = test system: dayflower, VA (Virginia dayflower, Commelina virginica)
Method in brief: as §1

[3] = test system: Panicum, fall (fall Panicum, Panicum dichotomiflorum)
Method in brief: as §1

[4] = test system: foxtail, giant (giant foxtail, Setaria faberii)
Method in brief: as §1

[5] = test system: foxtail, green (green foxtail, Setaria viridis)
Method in brief: as §1

[6] = test system: nightshade (eastern black nightshade, Solanum ptycanthum)
Method in brief: as §1

[7] = test system: johnsongrass (Sorghum halepense)
Method in brief: as §1

## CN1CC(c2cccc(OC(F)(F)C(F)F)c2)C(C(=O)Nc2cccc(F)c2F)C1=O (stereo not shown) [Compound 392]
[1]; 31 g ai/ha
  Plant response rating: Crabgrass, Large: 90
[1]; 62 g ai/ha
  Plant response rating: Crabgrass, Large: 95
[1]; 125 g ai/ha
  Plant response rating: Crabgrass, Large: 98
[1]; 250 g ai/ha
  Plant response rating: Crabgrass, Large: 98
[2]; 31 g ai/ha
  Plant response rating: Dayflower, VA: 0
[2]; 62 g ai/ha
  Plant response rating: Dayflower, VA: 0
[2]; 125 g ai/ha
  Plant response rating: Dayflower, VA: 0
[2]; 250 g ai/ha
  Plant response rating: Dayflower, VA: 35
[3]; 31 g ai/ha
  Plant response rating: Panicum, Fall: 95
[3]; 62 g ai/ha
  Plant response rating: Panicum, Fall: 98
[3]; 125 g ai/ha
  Plant response rating: Panicum, Fall: 98
[3]; 250 g ai/ha
  Plant response rating: Panicum, Fall: 98
[4]; 31 g ai/ha
  Plant response rating: Foxtail, Giant: 90
[4]; 62 g ai/ha
  Plant response rating: Foxtail, Giant: 95
[4]; 125 g ai/ha
  Plant response rating: Foxtail, Giant: 98
[4]; 250 g ai/ha
  Plant response rating: Foxtail, Giant: 98
[5]; 31 g ai/ha
  Plant response rating: Foxtail, Green: 65
[5]; 62 g ai/ha
  Plant response rating: Foxtail, Green: 90
[5]; 125 g ai/ha
  Plant response rating: Foxtail, Green: 95
[5]; 250 g ai/ha
  Plant response rating: Foxtail, Green: 98
[6]; 31 g ai/ha
  Plant response rating: Nightshade: 20
[6]; 62 g ai/ha
  Plant response rating: Nightshade: 80
[6]; 125 g ai/ha
  Plant response rating: Nightshade: 90
[6]; 250 g ai/ha
  Plant response rating: Nightshade: 90
[7]; 31 g ai/ha
  Plant response rating: Johnsongrass: 25
[7]; 62 g ai/ha
  Plant response rating: Johnsongrass: 30
[7]; 125 g ai/ha
  Plant response rating: Johnsongrass: 50
[7]; 250 g ai/ha
  Plant response rating: Johnsongrass: 95
